# Source: patent publication US20210147481A1, “PEPTIDE-BASED INHIBITORS OF MARK FAMILY PROTEINS” (Ohio Universtiy, priority 2017, published 2021)
# Peptide text beside a SMILES is read from it.
# Columns and labels:
# MARK2 [1] = biological target: MARK2 (Homo sapiens, UniProt Q7KZI7); experiment: Validation of tR1 as a substrate for MARK2 (western blot, α-pTau Ser262); assay type: biochemical; details: ATP, 60 minutes at 32° C.
# Description: Once an otherwise competent kinase-substrate pair was developed for a working phosphorylation assay, tR1 was validated as a substrate for MARK2. The tR1 peptide (NVKSKIGSTENLK [SEQ ID NO: 1]) was synthesized using standard Fmoc-based solid-phase synthesis procedures and the final sequence was either acylated (tR1) or labeled with 5-carboxyfluorescein (tR1) on its N-terminus (FIG. 6A). See the experimental procedures, below, for details on the synthesis, labeling, purification and characterization of tR1 peptides. To evaluate whether tR1 is recognized as a substrate by MARK2, MARK2 was incubated with ATP in the presence of varying concentrations of tR1 peptide for 60 minutes at 32° C. in phosphorylation buffer. Following incubation, phosphorylated tR1 peptides were separated by SDS-PAGE and identified by Western blot using antibodies specific for hTau pSer262 (FIG. 6B). Western blot analysis confirmed tR1 as a substrate of MARK2 by the presence of a sharp band at the highest concentration (100 μM).
# Phosphorylation assays were performed in 30 μL phosphorylation buffer (50 mM Tris-HCl, 5 mM MgCl2, 2 mM EGTA, 0.5 mM DTT, 0.5 mM benzamidine HCl, 0.5 mM PMSF, pH 8.0) and depending on the experimental conditions. […] Images were acquired by a Bio-Rad Gel Doc EZ imager and the band intensity was quantified using Image Lab Software c5.2.1 (Bio-Rad).
# MARK2 [2] = biological target: MARK2 (Rattus norvegicus, UniProt O08679); experiment: Immunofluorescence of PAO-induced MARK2-mediated tau Ser262 phosphorylation in neurons; assay type: cell-based
# trypsin = experiment: Trypsin degradation control (RP-HPLC); assay type: in vitro ADME; details: 37° C.
# Description: Stock peptide solutions for use in stability assays were prepared by dissolving tR1 to a final concentration of 5 mg/mL in dimethyl sulfoxide (DMSO). For stability tests, 2 μL of stock tR1 peptides were added to 198 μL pre-warmed RPMI medium supplemented with 25% (v/v) heat-inactivated human AB serum or neurobasal (NB) media at a final concentration of 50 μg/mL. Each reaction was subsequently incubated at 37° C. for the indicated times. Following incubation, 400 μL aqueous trichloroacetic acid (15%, w/v) was added to each reaction and the samples were immediately cooled on ice for 15 minutes. The samples were then centrifuged 3× at 14,000 rpm to remove precipitated proteins. […] The background signal was subtracted from each respective spectrum and the fraction of intact peptide was quantified from product peak integration normalized to undigested controls. […]
# A major limitation to the therapeutic efficacy of peptides is their susceptibility to proteolytic degradation. Indeed, short peptides generally have a serum half-life measured in minutes. The in vitro stability of tR1 peptides in the presence of proteolytic enzymes was determined. […] Following the incubation, the reactions were quenched using haloacetic acids and the extent of degradation was quantified by analytical HPLC.
# [3] = test system: rat primary cortical neurons; details: 72 hours
# Description: Primary cells were isolated from embryonic Sprauge-Dawley rats and cultured as described.
# High density rat primary cortical neurons (5-7 DIV) cultured in polyE coated 24-well plates were used for this assay. Culture media was switched to neurobasal without B27 supplement (NB-B27) before the addition of tR1 peptides. […] For the MTT assay, 50 μg/mL MTT working solution was diluted from a 5 mg/mL MTT stock (water solution made from MTT powder, Alfa Aesar L11939) in NB-B27. After aspirating out the culture media, cells were incubated with 0.2 mL 50 μg/mL MTT working solution for one hour at 37° C. Then, the MTT solution was aspirated and replaced with 0.5 mL DMSO. The whole DMSO solution was transferred to a cuvette and read in the spectrophotometer (Cary UV 50, Varian) at 550 nm with subtraction of the reading at 650 nm wavelength.
# Sequence of MARK2 (Rattus norvegicus, UniProt O08679) (O08679 whole entry): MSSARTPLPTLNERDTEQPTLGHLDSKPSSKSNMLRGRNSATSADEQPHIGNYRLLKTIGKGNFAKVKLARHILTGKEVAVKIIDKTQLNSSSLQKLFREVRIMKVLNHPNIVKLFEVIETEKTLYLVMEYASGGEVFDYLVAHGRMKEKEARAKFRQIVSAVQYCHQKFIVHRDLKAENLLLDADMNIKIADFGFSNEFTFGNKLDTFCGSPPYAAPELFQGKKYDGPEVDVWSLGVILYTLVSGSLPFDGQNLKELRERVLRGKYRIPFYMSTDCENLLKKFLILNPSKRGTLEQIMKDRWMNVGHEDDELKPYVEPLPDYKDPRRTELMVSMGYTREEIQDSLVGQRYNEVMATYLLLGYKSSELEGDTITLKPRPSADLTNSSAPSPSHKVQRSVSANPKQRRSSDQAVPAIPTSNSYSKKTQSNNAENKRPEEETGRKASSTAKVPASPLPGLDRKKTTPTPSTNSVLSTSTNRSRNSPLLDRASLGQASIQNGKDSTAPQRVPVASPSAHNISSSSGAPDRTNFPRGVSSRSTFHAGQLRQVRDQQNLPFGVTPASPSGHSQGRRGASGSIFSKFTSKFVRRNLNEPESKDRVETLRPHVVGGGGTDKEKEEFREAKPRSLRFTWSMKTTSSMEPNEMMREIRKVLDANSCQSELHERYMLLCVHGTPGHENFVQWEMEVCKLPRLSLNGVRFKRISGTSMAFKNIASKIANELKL
# Sequence of MARK2 (Homo sapiens, UniProt Q7KZI7) (Q7KZI7 whole entry): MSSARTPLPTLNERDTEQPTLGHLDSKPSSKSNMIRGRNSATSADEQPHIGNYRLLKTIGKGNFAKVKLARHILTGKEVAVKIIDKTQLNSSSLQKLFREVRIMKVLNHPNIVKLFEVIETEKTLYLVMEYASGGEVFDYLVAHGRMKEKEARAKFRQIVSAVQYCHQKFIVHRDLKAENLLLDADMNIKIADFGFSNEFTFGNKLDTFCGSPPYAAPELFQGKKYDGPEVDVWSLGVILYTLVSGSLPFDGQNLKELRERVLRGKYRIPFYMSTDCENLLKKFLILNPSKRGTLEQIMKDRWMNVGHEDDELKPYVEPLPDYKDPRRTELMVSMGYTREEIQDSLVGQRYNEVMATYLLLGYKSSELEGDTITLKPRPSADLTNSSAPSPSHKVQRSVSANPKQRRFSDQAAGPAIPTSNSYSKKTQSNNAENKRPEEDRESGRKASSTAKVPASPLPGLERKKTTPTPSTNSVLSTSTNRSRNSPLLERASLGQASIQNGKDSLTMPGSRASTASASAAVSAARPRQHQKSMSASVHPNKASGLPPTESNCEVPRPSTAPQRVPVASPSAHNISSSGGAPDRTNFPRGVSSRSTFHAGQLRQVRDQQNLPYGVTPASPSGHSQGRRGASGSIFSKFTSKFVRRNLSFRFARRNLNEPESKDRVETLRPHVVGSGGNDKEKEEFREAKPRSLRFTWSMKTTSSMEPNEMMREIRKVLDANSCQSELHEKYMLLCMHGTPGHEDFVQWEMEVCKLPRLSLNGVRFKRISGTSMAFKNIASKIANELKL
smiles,measurement,setting,value
"CC[C@H](C)[C@H](NC(=O)[C@H](CCCCN)NC(=O)[C@H](CO)NC(=O)[C@H](CCCCN)NC(=O)[C@@H](NC(=O)[C@H](CC(N)=O)NC(C)=O)C(C)C)C(=O)NCC(=O)N[C@@H](CO)C(=O)N[C@H](C(=O)N[C@@H](CCC(=O)O)C(=O)N[C@@H](CC(N)=O)C(=O)N[C@@H](CC(C)C)C(=O)N[C@@H](CCCCN)C(N)=O)[C@@H](C)O [tR1, NVKSKIGSTENLK] (Ac-NVKSKIGSTENLK-NH2)",phosphorylation of tR1 by MARK2 (western blot),"MARK2 [1]; 0, 1, or 10 μM peptide",Phosphorylation was not seen
same,phosphorylation of tR1 by MARK2 (western blot),MARK2 [1]; 100 μM peptide,sharp band
same,reduction in tau Ser262 phosphorylation,"MARK2 [2]; 10 μM tR1, co-treated with bafilomycin A1 or 100 μM chloroquine, 5 μM PAO",modest reduction in tau phosphorylation
same,loss in tau pSer262 signal compared to cells treated with PAO alone,"MARK2 [2]; 30 μM peptide and bafilomycin, PAO",~50%
same,loss in tau pSer262 signal,"MARK2 [2]; 30 μM peptide and chloroquine, PAO",loss in signal comparable to that of baseline
same,inhibition of MARK2-mediated phosphorylation of tau Ser262,"MARK2 [2]; 30 μM tR1, co-treated with bafilomycin A1 or 100 μM chloroquine, 5 μM PAO",near complete inhibition
same,inhibition of MARK2-mediated phosphorylation of tau Ser262,"MARK2 [2]; tR1 peptides alone (no endosome disruptor), 5 μM PAO",did not inhibit
same,degradation by trypsin,"trypsin; trypsin 10 ng/μL in digestion buffer, 15 minutes",complete degradation
same,time to degradation in buffer containing trypsin,trypsin; trypsin 10 ng/μL,less than 15 minutes
same,concentrations at which tR1 is non-toxic,[3]; MTT,up to 300 μM
same,loss in cell viability,[3]; highest concentrations of tR1 (0-300 μM),< 5%
